Reference: US8278336B2, “Compounds” (Boehringer Ingelheim International GmbH, priority 2007, dated 2012)

What follows are molecules tested against T1, human CGRP receptor (Homo sapiens, UniProt O60894+Q16602) (assay: Binding studies with SK-N-MC cells (125I-CGRP displacement on SK-N-MC membranes)). Conditions: 50 pM 125I-iodotyrosyl-CGRP, 180 minutes at ambient temperature.
T1 construct: SK-N-MC membranes (˜20 μg protein) are incubated for 180 minutes at ambient temperature; endogenous in cells; host or cells: SK-N-MC cells (membrane preparation)
T1 sequence (Q16602 23-461): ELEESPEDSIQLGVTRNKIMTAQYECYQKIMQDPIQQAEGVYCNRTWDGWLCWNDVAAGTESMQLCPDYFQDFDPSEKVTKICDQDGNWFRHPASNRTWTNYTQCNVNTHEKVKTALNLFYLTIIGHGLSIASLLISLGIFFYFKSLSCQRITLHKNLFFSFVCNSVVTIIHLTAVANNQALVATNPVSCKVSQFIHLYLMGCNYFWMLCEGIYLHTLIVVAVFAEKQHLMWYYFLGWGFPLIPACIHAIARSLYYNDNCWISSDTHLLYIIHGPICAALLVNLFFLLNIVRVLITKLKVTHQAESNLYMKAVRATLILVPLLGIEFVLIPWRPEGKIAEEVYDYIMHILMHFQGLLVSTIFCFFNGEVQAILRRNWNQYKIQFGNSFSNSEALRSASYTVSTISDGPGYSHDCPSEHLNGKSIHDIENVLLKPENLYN
T1 sequence (O60894 27-148): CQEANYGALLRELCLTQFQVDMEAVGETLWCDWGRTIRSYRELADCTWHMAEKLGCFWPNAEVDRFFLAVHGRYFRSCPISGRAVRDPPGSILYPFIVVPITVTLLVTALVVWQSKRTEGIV
Experimental: A. Binding Studies with SK-N-MC Cells (Expressing the Human CGRP Receptor)
SK-N-MC membranes (˜20 μg protein) are incubated for 180 minutes at ambient temperature with 50 pM ^125I-iodotyrosyl-Calcitonin-Gene-Related Peptide and increasing concentrations of the test substances in a total volume of […] (assay buffer: 10 mM tris, 50 mM NaCl, 5 mM MgCl2, 1 mM EDTA, pH=7.4). The incubation is ended by rapid filtration through GF/B-glass fibre filters treated with polyethyleneimine (0.1%) using a cell harvester. The protein-bound radioactivity is measured using a gamma counter. Non-specific binding is defined as the bound radioactivity after the presence of 1 μM BIBN4096BS during incubation.
The concentration binding curves are analysed using computer-aided non-linear curve fitting.

Ki [nM]	SMILES
3.8	CC1(C)CN(C(=O)c2cc(N3CCC(n4c(=O)[nH]c5ncccc54)CC3)[nH]c(=O)c2)c2ccc(F)cc21 [Example 4, 4′-(5-fluoro-3,3-dimethyl-2,3-dihydroindole-1-carbonyl)-4-(2-oxo-2,3-dihydroimidazo[4,5-b]-pyridin-1-yl)-3,4,5,6-tetrahydro-2H,1′H-[1,2′]bipyridinyl-6′-one]
8.4	COc1ccc2c(c1)CCN(C1CCN(c3cc(C(=O)N4CCc5cc(F)ccc54)cc(=O)[nH]3)CC1)C(=O)N2 [Example 3, 3-[4′-(5-fluoro-2,3-dihydroindole-1-carbonyl)-6′-oxo-3,4,5,6,1′,6′-hexahydro-2H-1,2′-bipyridinyl-4-yl]-7-methoxy-1,3,4,5-tetrahydro-1,3-benzodiazepin-2-one]
480	Cn1c(N2CCC(n3c(=O)[nH]c4ncccc43)CC2)cc(C(=O)N2CCc3cc(F)ccc32)cc1=O [Example 2, 4′-(5-fluoro-2,3-dihydroindole-1-carbonyl)-1′-methyl-4-(2-oxo-2,3-dihydroimidazo[4,5-b]-pyridin-1-yl)-3,4,5,6-tetrahydro-2H,1′H-[1,2′]bipyridinyl-6′-one]
